Data from patent US8106055B2, “Substituted amide compounds” (Gruenenthal GmbH, priority 2007, dated 2012).

Tests used:
[1] = biological target: T1, bradykinin 1 receptor (B1R) of the rat (Rattus norvegicus, UniProt P97583); assay: Functional investigation on the rat bradykinin 1 receptor (B1R), Ca2+ FLIPR assay in CHO K1 rB1R cells; type: cell-based; conditions: test substance 10 μM, Ca2+ FLIPR, CHO K1 rB1R cells; for B1R Ant. r [10 μM] % Inhibition: B1R antagonism rat; for inhibition at 10 µM: CHO-K1, B1R antagonism rat, read-out: B1R Ant. r [10 μM] % Inhibition
T1 construct: expressed in transfected cells; host or cells: CHO K1 cells
T1 sequence (P97583 1-337): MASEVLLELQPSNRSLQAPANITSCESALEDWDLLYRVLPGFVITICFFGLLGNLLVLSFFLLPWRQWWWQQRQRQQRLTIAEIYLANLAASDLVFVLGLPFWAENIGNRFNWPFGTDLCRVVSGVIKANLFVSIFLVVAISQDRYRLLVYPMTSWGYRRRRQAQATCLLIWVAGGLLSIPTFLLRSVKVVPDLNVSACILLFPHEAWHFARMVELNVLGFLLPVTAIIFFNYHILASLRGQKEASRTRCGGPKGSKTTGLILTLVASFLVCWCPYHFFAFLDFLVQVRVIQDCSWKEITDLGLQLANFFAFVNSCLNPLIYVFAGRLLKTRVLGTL
Outline: (§1)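 Cells were dye-loaded with Fluo-4 plus probenecid, then test substances added and Ca2+ influx compared with agonist control for % activation. After 10-20 min, EC80 agonist (Lys-Des-Arg9-bradykinin human; Des-Arg9-bradykinin rat) was applied; suppression gave % inhibition and IC50 values.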

[2] = biological target: T2, human bradykinin 1 receptor (B1R) (Homo sapiens, UniProt P46663); assay: Functional investigation on the human bradykinin 1 receptor (B1R), Ca2+ FLIPR assay in CHO K1 hB1R cells; type: cell-based; conditions: test substance 10 μM, Ca2+ FLIPR, CHO K1 hB1R cells; for B1R Ant. h [10 μM] % Inhibition: B1R antagonism human; for inhibition at 10 µM: CHO-K1, B1R antagonism human, read-out: B1R Ant. h [10 μM] % Inhibition
T2 construct: expressed in transfected cells; host or cells: CHO K1 cells
T2 sequence (P46663 1-353): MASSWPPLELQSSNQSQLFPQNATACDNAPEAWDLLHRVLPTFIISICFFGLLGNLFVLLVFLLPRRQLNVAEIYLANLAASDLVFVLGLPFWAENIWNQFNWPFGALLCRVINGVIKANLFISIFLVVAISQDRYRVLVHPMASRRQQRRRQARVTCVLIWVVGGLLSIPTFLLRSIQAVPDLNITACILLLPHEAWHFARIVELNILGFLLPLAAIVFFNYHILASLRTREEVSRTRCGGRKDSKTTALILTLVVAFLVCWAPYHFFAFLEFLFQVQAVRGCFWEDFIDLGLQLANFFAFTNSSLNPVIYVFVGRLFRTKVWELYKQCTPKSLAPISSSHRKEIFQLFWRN
Outline: as §1

Structure (SMILES) | B1R Ant. r [10 μM] % Inhibition [1] [%] | B1R Ant. h [10 μM] % Inhibition [2] [%] | inhibition at 10 µM [1] [%] | inhibition at 10 µM [2] [%]
COc1ccc(S(=O)(=O)N2CCCCC2COCC(=O)NCC2CCC(C(c3ccc(F)cc3)N(C)C)CC2)cc1OC (single isomer, unassigned) [Example 534] | −4 | −18 | – | –
COc1ccc(S(=O)(=O)N2CCCCC2COCC(=O)NCC2CCC(C(c3ccc(F)cc3)N(C)C)CC2)cc1OC (single isomer, unassigned) [Example 537] | 8 | −15 | – | –
COc1ccc(S(=O)(=O)N2CCCCC2CCOCC(=O)NC2CCC(C(c3cccs3)N(C)C)CC2)cc1 (stereo not shown) [Example 6, N-(4-((dimethylamino)(thiophen-2-yl)methyl)cyclohexyl)-2-(2-(1-(4-methoxyphenylsulfonyl)piperidin-2-yl)ethoxy)acetamide] | – | – | 34 | 24
COc1ccc(S(=O)(=O)N2Cc3ccccc3CC2COCC(=O)NCC2CCC(C(c3cccs3)N(C)C)CC2)cc1 (stereo not shown) [Example 7, N-((4-((dimethylamino)(thiophen-2-yl)methyl)cyclohexyl)methyl)-2-((2-(4-methoxyphenylsulfonyl)-1,2,3,4-tetrahydroisoquinolin-3-yl)methoxy)acetamide] | – | – | 27 | 47
CN(C)C(c1cccs1)C1CCC(CNC(=O)COCCN(C)S(=O)(=O)c2ccc(Cl)cc2Cl)CC1 (stereo not shown) [Example 8, 2-(2-(2,4-dichloro-N-methylphenylsulfonamido)ethoxy)-N-((4-((dimethylamino)(thiophen-2-yl)methyl)cyclohexyl)methyl)acetamide] | – | – | 62 | 101
Cc1cc(C)c(S(=O)(=O)N(C)CCOCC(=O)NC2CCC(C(c3ccccc3)N(C)C)CC2)c(C)c1 (stereo not shown) [Example 63, N-(4-((dimethylamino)(phenyl)methyl)cyclohexyl)-2-(2-(N,2,4,6-tetramethylphenylsulfamido)ethoxy)acetamide] | 8 | 92 | – | –
CN(C)C(c1cccs1)C1CCC(CCNC(=O)COC2CCN(S(=O)(=O)c3cccc(C(F)(F)F)c3)C2)CC1 (stereo not shown) [Example 96, N-(2-(4-((dimethylamino)(thiophen-2-yl)methyl)cyclohexyl)ethyl)-2-(1-(3-(trifluoromethyl)phenylsulfonyl)pyrrolidin-3-yloxy)acetamide] | – | – | 26 | 4
CN(C)C(c1cccs1)C1CCC(CNC(=O)COC2CCN(S(=O)(=O)c3ccc(F)cc3)C2)CC1 (stereo not shown) [Example 97, N-((4-((dimethylamino)(thiophen-2-yl)methyl)cyclohexyl)methyl)-2-(1-(4-fluorophenylsulfonyl)pyrrolidin-3-yloxy)acetamide] | – | – | 28 | 1
COc1cc(C)c(S(=O)(=O)N2CCC(OCC(=O)NC3CCC(C(c4cccs4)N(C)C)CC3)C2)c(C)c1 (stereo not shown) [Example 98, N-(4-((dimethylamino)(thiophen-2-yl)methyl)cyclohexyl)-2-(1-(4-methoxy-2,6-dimethylphenylsulfonyl)pyrrolidin-3-yloxy)acetamide] | – | – | 69 | 64
CN(C)C(c1cccs1)C1CCC(CCNC(=O)COCCN2CCN(S(=O)(=O)c3ccccc3)CC2)CC1 (stereo not shown) [Example 99, N-(2-(4-((dimethylamino)(thiophen-2-yl)methyl)cyclohexyl)ethyl)-2-(2-(4-(phenylsulfonyl)piperazin-1-yl)ethoxy)acetamide] | – | – | -8 | -8
CN(C)C(c1cccs1)C1CCC(CCNC(=O)COC2CCCN(S(=O)(=O)c3ccccc3)C2)CC1 (stereo not shown) [Example 100, N-(2-(4-((dimethylamino)(thiophen-2-yl)methyl)cyclohexyl)ethyl)-2-(1-(phenylsulfonyl)piperidin-3-yloxy)acetamide] | – | – | 27 | -3
CN(C)C(c1cccs1)C1CCC(CNC(=O)COCC2CCCN(S(=O)(=O)c3ccccc3)C2)CC1 (stereo not shown) [Example 101, N-((4-((dimethylamino)(thiophen-2-yl)methyl)cyclohexyl)methyl)-2-((1-(phenylsulfonyl)piperidin-3-yl)methoxy)acetamide] | – | – | 27 | 0
CN(C)C(c1cccs1)C1CCC(CNC(=O)COCCN(Cc2ccccc2)S(=O)(=O)c2ccccc2)CC1 (stereo not shown) [Example 102, 2-(2-(N-benzylphenylsulfonamido)ethoxy)-N-((4-((dimethylamino)(thiophen-2-yl)methyl)cyclohexyl)methyl)acetamide] | – | – | -12 | -4
CCN(CCOCC(=O)NCCC1CCC(C(c2cccs2)N(C)C)CC1)S(=O)(=O)c1c(C)cc(OC)c(C)c1C (stereo not shown) [Example 103, N-(2-(4-((dimethylamino)(thiophen-2-yl)methyl)cyclohexyl)ethyl)-2-(2-(N-ethyl-4-methoxy-2,3,6-trimethylphenylsulfonamido)ethoxy)acetamide] | – | – | 84 | 90
COc1cc(C)c(S(=O)(=O)N2CCC(OCC(=O)NCC3CCC(C(c4cccs4)N(C)C)CC3)CC2)c(C)c1C (stereo not shown) [Example 104, N-((4-((dimethylamino)(thiophen-2-yl)methyl)cyclohexyl)methyl)-2-(1-(4-methoxy-2,3,6-trimethylphenylsulfonyl)piperidin-4-yloxy)acetamide] | – | – | -10 | 24
COc1ccc(S(=O)(=O)N2CCCC2COCC(=O)NCC2CCC(C(c3cccs3)N(C)C)CC2)cc1 (stereo not shown) [Example 105, N-((4-((dimethylamino)(thiophen-2-yl)methyl)cyclohexyl)methyl)-2-((1-(4-methoxyphenylsulfonyl)pyrrolidin-2-yl)methoxy)acetamide] | – | – | 24 | 33
COc1ccc(S(=O)(=O)N2CCCCC2COCC(=O)NCC2CCC(C(c3ccccc3)N(C)C)CC2)c(OC)c1 (stereo not shown) [Example 106, 2-((1-(2,4-dimethoxyphenylsulfonyl)piperidin-2-yl)methoxy)-N-((4-((dimethylamino)(phenyl)methyl)cyclohexyl)methyl)acetamide] | – | – | 13 | 4
COc1ccc(S(=O)(=O)N2CCCCC2COCC(=O)NCCC2CCC(C(c3cccs3)N(C)C)CC2)c(OC)c1 (stereo not shown) [Example 107, 2-((1-(2,4-dimethoxyphenylsulfonyl)piperidin-2-yl)methoxy)-N-(2-(4-((dimethylamino)(thiophen-2-yl)methyl)cyclohexyl)ethyl)acetamide] | – | – | 49 | -4
CN(C)C(c1ccccc1)C1CCC(CNC(=O)COCCN(C)S(=O)(=O)c2ccc(Cl)cc2)CC1 (stereo not shown) [Example 110, 2-(2-(4-chloro-N-methylphenylsulfonamido)ethoxy)-N-((4-((dimethylamino) (phenyl)methyl)cyclohexyl)methyl)acetamide] | – | – | 10 | 21
COc1cc(C)c(S(=O)(=O)N(C)CCOCC(=O)NC2CCC(C(c3cccs3)N(C)C)CC2)c(C)c1 (stereo not shown) [Example 111, N-(4-((dimethylamino)(thiophen-2-yl)methyl)cyclohexyl)-2-(2-(4-methoxy-N,2,6-trimethylphenylsulfonamido)ethoxy)acetamide] | – | – | 104 | 102
CN(C)C(c1ccccc1)C1CCC(CNC(=O)COCCN(C)S(=O)(=O)c2ccc(F)cc2)CC1 (stereo not shown) [Example 112, N-((4-((dimethylamino)(phenyl)methyl)cyclohexyl)methyl)-2-(2-(4-fluoro-N-methylphenylsulfonamido)ethoxy)acetamide] | – | – | 5 | -1
CN(C)C(c1ccccc1)C1CCC(CNC(=O)COC2CCN(S(=O)(=O)c3cccc(C(F)(F)F)c3)C2)CC1 (stereo not shown) [Example 113, N-((4-((dimethylamino)(phenyl)methyl)cyclohexyl)methyl)-2-(1-(3-(trifluoromethyl)phenylsulfonyl)pyrrolidin-3-yloxy)acetamide] | – | – | 28 | -1
CN(C)C(c1ccccc1)C1CCC(CNC(=O)COC2CCCN(S(=O)(=O)c3ccccc3)C2)CC1 (stereo not shown) [Example 114, N-((4-((dimethylamino)(phenyl)methyl)cyclohexyl)methyl)-2-(1-(phenylsulfonyl)piperidin-3-yloxy)acetamide] | – | – | 8 | -17
